“And” between values parts separate entries of the source, which are not always exact repeats. Equal values may be shown once.

The target in data set [1] is T1, human wildtype CFTR (Homo sapiens, UniProt P13569). Description: Short-circuit current analysis of CFTR inhibition in CFTR-expressing FRT cells. The conditions noted are these: for inhibition of short-circuit current: 100 nM. Also noted: expressed in transfected cells; host or cells: Fischer rat thyroid (FRT) epithelial cells on Snapwell inserts. Type of data set: cell-based. How it is done: Short-Circuit Current—Snapwell inserts containing CFTR-expressing FRT cells were mounted in an Ussing chamber. The hemichambers contained 5 mL of buffer containing 75 mM NaCl and 75 mM Na gluconate (apical) and 150 mM NaCl (basolateral) (pH 7.3), and the basolateral membrane was permeabilized with 250 μg/mL amphotericin B, as described (see, e.g., Sonawane et al., FASEB J 2006, supra). Short-circuit current was recorded continuously using a DVC-1000 voltage clamp (World Precision Instruments) using Ag/AgCl electrodes and 3 M KCl agar bridges.
Current was measured in CFTR-expressing FRT cells in which the basolateral membrane was permeabilized and in the presence of a transepithelial chloride concentration gradient, so that current is a quantitative linear measure of CFTR function. CFTR was activated by forskolin, followed by serial additions of increasing concentrations of test compounds.
CFTR inhibition potency was measured by short-circuit current analysis in FRT epithelial cells expressing human CFTR in presence of a transepithelial chloride gradient and in which the basolateral membrane was permeabilized with amphotericin B. Under these conditions short-circuit current is proportional to CFTR chloride conductance.

Data set [2] is described as follows: In vitro metabolism in hepatic microsomes (LC/MS). The conditions noted are these: in the presence of NADPH. The data set is classed as in vitro ADME, rat. How it is done:
(§1) In Vitro Metabolism in Hepatic Microsomes—A compound of structure (I) was incubated for specified times at 37° C. with rat liver microsomes (e.g., 1 mg protein/ml; Sigma-Aldrich, St. Louis, Mo.) in potassium phosphate buffer (100 mM) containing NADPH (0 or 1 mM). The mixture was then chilled on ice, and 0.5 ml of ice-cold ethyl acetate was added. Samples were centrifuged for 15 min at 3,000 rpm, and the supernatant was evaporated to dryness under nitrogen. The residue was dissolved in 150 μl mobile phase (acetonitrile:water 3:1, containing 0.1% formic acid) for LC/MS analysis. Reverse-phase HPLC separations were carried out using a Waters C18 column (2.1×100 mm, […]) equipped with a solvent delivery system (Waters model 2690, Milford, Mass.). The solvent system consisted of a linear gradient from 5 to 95% acetonitrile run over 16 min (0.2 mL/min flow rate). Mass spectra were acquired on an Alliance HT 2790+ZQ mass spectrometer using negative ion detection.
as §1, with “Liquid Chromatography/Mass Spectrometry—Compounds (each at 5 μM) were” for “In Vitro Metabolism in Hepatic Microsomes—A compound of structure (I) was”, “(1” for “(e.g., 1”, “150” for “150 μl”, “detection, scanning from 150 to 1500 Da. The electrospray ion source parameters were as follows: capillary voltage 3.5 kV (positive ion mode), cone voltage 37 V, source temperature 120° C., desolvation temperature 250° C., cone gas flow 25 L/h, and dessolvation gas flow 350 L/h.” for “detection.”
PPQ-102 is a small-molecule inhibitor of CFTR chloride conductance with efficacy in preventing and reversing cyst formation in an organ culture model of PKD (see, e.g., Tradtrantip et al., J. Med. Chem. 2009, supra; Int'l Patent Appl. Publication No. WO 2011/019737). Preliminary analysis of the metabolic stability and aqueous solubility of PPQ-102, indicated poorer metabolic stability and lower water solubility (˜2 μM in albumin-free saline) than desired for optimal drugability. In vitro metabolic stability was determined by compound incubation with hepatic microsomes at 37° C. for specified times in the absence vs. presence of NADPH, following by LC/MS analysis. Shown in FIG. 6A is PPQ-102 disappearance in hepatic microsomes in the presence of NADPH, with ˜60% disappearance in 30 min.

Data set [3] concerns the target T1, human wildtype CFTR. Description: Fluorescence plate reader assay of CFTR inhibition (iodide influx). The data set is classed as cell-based. Also noted: expressed in transfected cells; host or cells: Fischer rat thyroid (FRT) cells. The conditions noted are these: Determined by micro-plate reader assay; FRT cells co-expressing human wild type CFTR and YFP-H148Q. As for the experimental part:
Cell Culture and Plate Reader Assay of CFTR Inhibition—Fischer rat thyroid (FRT) cells co-expressing human wild type CFTR and the halide indicator YFP-H148Q were cultured in 96-well black-walled microplates (Corning Costar) at a density of 20,000 cells per well in Coon's modified F12 medium containing 10% fetal bovine serum, 2 mM L-glutamine, 100 U/mL penicillin and 100 μg/mL streptomycin. CFTR chloride conductance was assayed at 48 h after plating on a FluoStar fluorescence plate reader (BMG Lab Technologies) as described (see, e.g., Ma et al., J Clin Invest. 2002, supra). Each well was washed 3 times with PBS, leaving 60 μL PBS. Test compounds were added and incubated with the cells for 45 min. Then, 5 μL of a CFTR-activating cocktail (10 μM forskolin, 100 μM IBMX, 20 μM apigenin in PBS) was added. After 15 min, each well was assayed for iodide influx by recording fluorescence continuously (200 ms per point) for 2 s (baseline) and then for 10 s after rapid addition of 160 μL of isosmolar PBS in which 137 mM chloride was replaced by iodide. The initial rate of iodide influx was computed from fluorescence data by non-linear regression.
Initial testing of the compounds for the capability to inhibit CFTR was performed using a plate-reader assay in which iodide influx was measured in FRT cells co-expressing human wild type CFTR and the iodide-sensing yellow fluorescent protein YFP-H148Q/1152L. […] Table B below provides IC50 values for PPQ and BPO compounds.
The relative IC50 values obtained from the plate reader assay are useful for comparisons. Absolute IC50 values obtained from the plate-reader assay are approximate, generally underestimating compound potency because of assay non-linearities, pH-dependent YFP fluorescence, the use of iodide instead of chloride, and compound dilution at the start of the assay (see, e.g., Galietta et al., Am. J. Physiol. Cell Physiol. 281:C1734-42 (2001)).

[4] abbreviates: short-circuit current, FRT cells expressing human CFTR, forskolin-stimulated, read-out: IC50 for inhibition of CFTR chloride conductance.
Where [5] appears, read: Determined by short-circuit current assay, read-out: IC50 (μM)^B.

T1 sequence (P13569 whole entry): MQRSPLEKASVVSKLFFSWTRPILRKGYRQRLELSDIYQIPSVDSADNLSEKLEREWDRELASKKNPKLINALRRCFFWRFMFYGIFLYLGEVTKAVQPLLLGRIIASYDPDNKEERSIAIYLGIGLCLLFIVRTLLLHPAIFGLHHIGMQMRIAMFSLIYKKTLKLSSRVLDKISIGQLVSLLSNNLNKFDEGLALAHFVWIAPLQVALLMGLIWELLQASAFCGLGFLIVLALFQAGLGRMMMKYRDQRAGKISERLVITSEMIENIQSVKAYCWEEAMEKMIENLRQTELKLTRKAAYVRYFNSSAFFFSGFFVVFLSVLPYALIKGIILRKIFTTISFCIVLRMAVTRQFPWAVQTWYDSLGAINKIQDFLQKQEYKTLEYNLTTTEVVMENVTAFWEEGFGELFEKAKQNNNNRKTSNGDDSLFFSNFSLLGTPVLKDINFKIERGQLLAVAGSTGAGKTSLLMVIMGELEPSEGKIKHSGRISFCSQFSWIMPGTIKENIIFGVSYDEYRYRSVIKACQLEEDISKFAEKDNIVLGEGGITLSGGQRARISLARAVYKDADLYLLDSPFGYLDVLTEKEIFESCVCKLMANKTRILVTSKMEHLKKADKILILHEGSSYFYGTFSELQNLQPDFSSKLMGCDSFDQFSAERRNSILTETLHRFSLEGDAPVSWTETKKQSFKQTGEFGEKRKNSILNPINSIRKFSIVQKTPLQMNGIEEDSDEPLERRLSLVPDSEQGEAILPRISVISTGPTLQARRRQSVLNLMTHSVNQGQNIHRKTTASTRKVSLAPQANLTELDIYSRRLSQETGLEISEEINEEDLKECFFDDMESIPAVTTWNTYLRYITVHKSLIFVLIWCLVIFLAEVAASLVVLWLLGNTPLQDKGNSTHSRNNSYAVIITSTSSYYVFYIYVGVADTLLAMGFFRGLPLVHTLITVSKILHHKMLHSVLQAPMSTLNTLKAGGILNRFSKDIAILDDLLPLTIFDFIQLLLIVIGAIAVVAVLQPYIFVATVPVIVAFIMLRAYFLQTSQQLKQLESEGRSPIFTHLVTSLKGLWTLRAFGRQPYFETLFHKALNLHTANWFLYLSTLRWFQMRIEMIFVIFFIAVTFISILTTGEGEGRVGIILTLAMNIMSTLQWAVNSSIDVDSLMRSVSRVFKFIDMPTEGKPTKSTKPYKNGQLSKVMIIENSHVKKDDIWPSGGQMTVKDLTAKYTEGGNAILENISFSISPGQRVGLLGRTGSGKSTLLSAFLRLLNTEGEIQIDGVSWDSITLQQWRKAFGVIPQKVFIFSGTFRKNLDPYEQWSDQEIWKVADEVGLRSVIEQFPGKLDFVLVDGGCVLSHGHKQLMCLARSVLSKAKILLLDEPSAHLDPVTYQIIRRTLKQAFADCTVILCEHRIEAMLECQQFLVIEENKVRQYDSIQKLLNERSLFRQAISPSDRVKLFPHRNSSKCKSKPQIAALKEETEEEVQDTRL

The IC50 is the concentration that inhibits the measured activity by half. Consider `Cn1c(=O)c2c(-c3ccccc3)n3c(c2n(C)c1=O)[C@H](c1ccc(Br)o1)Oc1ccc(C(=O)O)cc1-3` (single isomer, unassigned) [(R)-BPO-27, 6R-(5-Bromofuran-2-yl)-7,9-dimethyl-8,10-dioxo-11-phenyl-7,8,9,10-tetrahydro-6H-benzo[b]pyrimido [4′,5′:3,4]pyrrolo [1,2-d][1,4]oxazine-2-carboxylic acid], for which the “inhibition of short-circuit current” value in data set [1] is “completed inhibited current”. In addition, the IC50 in data set [1] (setting [4]) was 0.004 µM and ~0.004 µM. In addition, the “metabolic stability in hepatic microsomes (in words)” value (“metabolic stability” below) in data set [2] is given as “little metabolism”.
In the case of `Cn1c(=O)c2c(-c3ccccc3)n3c(c2n(C)c1=O)[C@@H](c1ccc(Br)o1)Oc1ccc(C(=O)O)cc1-3` (single isomer, unassigned) [(S)-BPO-27, 6S-(5-Bromofuran-2-yl)-7,9-dimethyl-8,10-dioxo-11-phenyl-7,8,9,10-tetrahydro-6H-benzo[b]pyrimido [4′,5′:3,4]pyrrolo [1,2-d][1,4]oxazine-2-carboxylic acid], in data set [1], the “inhibition of short-circuit current” value is “no significant inhibition”. Moreover, the “inhibition of CFTR chloride conductance (in words)” value in data set [1] (short-circuit current) was “inactive”. The IC50 in data set [1] (setting [4]) was about 0.004 µM. For the same compound, in data set [2], the “metabolic stability” value is “little metabolism”.
`Cn1c(=O)c2c(-c3ccccc3)n3c(c2n(C)c1=O)C(c1ccc(Br)o1)Oc1ccccc1-3` (stereo not drawn) [BPO-16, 6-(5-Bromofuran-2-yl)-7,9-dimethyl-11-phenyl-6H-benzo[b]pyrimido[4′,5′-3,4]pyrrolo[1,2-d]oxazine-8,10-(7H,9H)-dione]: the IC50 in data set [1] (setting [5]) was 0.09 µM; in data set [3], 200 nM. For the same compound, the “metabolic stability” value in data set [2] was “better stability than PPQ-102”.
Take `Cn1c(=O)c2c(-c3ccccc3)n3c(c2n(C)c1=O)C(c1ccc(Br)o1)Oc1ccc([N+](=O)[O-])cc1-3` (stereo not drawn) [BPO-21, 6-(5-bromofuran-2-yl)-7,9-Dimethyl-2-nitro-11-phenyl-6H-benzo[b]pyrimido[4′,5′-3,4]pyrrolo[1,2-d]oxazine-8,10-(7H,9H)-dione]: the IC50 in data set [1] (setting [5]) was 0.025 µM; in data set [3], 120 nM. The “inhibition of CFTR chloride conductance (in words)” value in data set [1] (short-circuit current) is recorded as “substantially greater CFTR inhibition potency”. Further, in data set [2], the “metabolic stability” value is listed as “excellent metabolic stability”.
As for `Cc1ccc(C2Oc3ccc([N+](=O)[O-])cc3-n3c(-c4ccccc4)c4c(=O)n(C)c(=O)n(C)c4c32)o1` (stereo not drawn) [BPO-22, 7,9-Dimethyl-6-(5-methylfuran-2-yl)-2-nitro-11-phenyl-6H-benzo[b]pyrimido[4′,5′-3,4]pyrrolo[1,2-d]oxazine-8,10-(7H,9H)-dione], the figures for the IC50 in data set [1] (setting [5]) and in data set [3] were 0.025 µM and 100 nM, respectively.
Regarding `Cn1c(=O)c2c(-c3ccccc3)n3c(c2n(C)c1=O)C(c1ccc(Br)o1)Nc1ccccc1-3` (stereo not drawn) [PPQ-10, 6-(5-Bromofuran-2-yl)-7,9-dimethyl-11-phenyl-5,6-dihydropyrimido[4′,5′-3,4]pyrrolo[1,2-a]quinoxaline-8,10-(7H,9H)-dione], the IC50 amounted to 0.05 µM in data set [1] (setting [5]) and 90 nM in data set [3]. In addition, the “metabolic stability” value in data set [2] was “substantially more stable than PPQ-102”.
Consider `Cn1c(=O)c2c(-c3ccccc3)n3c(c2n(C)c1=O)C(c1ccc(I)o1)Nc1ccccc1-3` (stereo not drawn) [PPQ-11, 7,9-Dimethyl-6-(5-iodofuran-2-yl)-11-phenyl-5,6-dihydropyrimido[4′,5′-3,4]pyrrolo[1,2-a]quinoxaline-8,10-(7H,9H)-dione], for which the values for the IC50 in data set [1] (setting [5]) and in data set [3] were 0.1 µM and 170 nM, respectively.
